In US8546421B1, “Oncogenic-RAS-signal dependent lethal compounds” (The Trustees of Columbia University in the City of New York, priority 2007, dated 2013):

Columns and labels:
[1] = tested on: BJ-TERT/LT/ST/RAS^V12 cells; assay: Effect of cell cycle inhibitors on Compound 36-induced cell death; assay type: cell-based, human; settings: apigenin, monastrol, olomoucine, nocodazole, hydroxyurea, colchicine, rapamycin
Experimental: BJ-TERT/LT/ST/RAS^V12 cells were seeded in a 384-well assay plate at a concentration of 4,000 cells per well in 32 μL culture volume. Cells were treated with cell cycle inhibitors by transferring 4 μL of 500 μM apigenin (Sigma, cat.#A3145), 1.5 mM monastrol (Sigma, cat.#M8515), 1 mM olomoucine (Sigma, cat.#00886), 2 μM Nocodazole (Sigma, cat.#M1404), 6 mM Hydroxy-urea (Sigma, cat.#H8627), 0.1 μM colchicine (Sigma, cat.#D6165), or 50 μM Rapamycine (Sigma, cat.#RO395) in growth media to the assay plate. […] The assay plate was incubated for 24 hours and alamar blue was added to the assay plate at a final concentration of 10%.

[2] = tested on: HOP-62; assay: NCI60 anti-cancer screening; assay type: cell-based; settings: Non-small cell lung carcinoma
[3] = Maximum tolerated dose in mice; assay type: in vivo; settings: mouse, in vivo, ip, single intraperitoneal injection in sterile PBS
Experimental: (§1) The maximum tolerated dose of Compound 27 was tested in mice.
(§2) Each mouse in the study was administered a single intraperitoneal injection of Compound 27 dissolved in sterile PBS at 100 mg/kg, 200 mg/kg, or 400 mg/kg.

[4] = tested on: mice; assay: Maximum tolerated dose in mice; assay type: in vivo; settings: single intraperitoneal injection at 100, 200 or 400 mg/kg
Experimental: as §1, §2

SMILES | effect of cell cycle blockers on compound-induced cell death [1] | GI50 ([2]; Homo sapiens) [nM] | LC50 ([2]; Homo sapiens) [nM] | GI 100% [2] [µM] | MTD [3] [mg/kg] | mortality [4]
C=C1CCC2C(C)(C)CCC[C@]2(C)C1CC/C(C)=C\CC/C(C)=N/NC(N)=S (stereo partly drawn) [Compound 36] | None of cell cycle blockers were effective | 405 | 3770 | 1.42 | – | –
COC(=O)c1ccc(C2c3[nH]c4ccccc4c3CC(C(=O)OC)N2C(=O)CCl)cc1 (stereo not drawn) [Compound 27] | – | – | – | – | > 400 | None of the mice died
